Columns and labels:
[1] = tested on: MOCS1-deficient mice; test: Running wheel test; format: in vivo; conditions: 10 and 20 RPM
[2] = tested on: MOCS1-deficient mice; test: Lifespan and phenotype of MOCS1-/- mice injected with precursor Z into the liver; format: in vivo; conditions: for Average Lifespan: injected into the liver
Method: The half-life of sulphite oxidase in rat liver was determined to be 3-4 days^B27.
The lowest dose amounted to 0.2 μg precursor Z, administered every second day. […] With the administration of 1-2 μg every third day the mice achieved a greater age and were suckled until day 20-30, thereafter the MOCS1^−/ animals however appeared slower in their flight reaction and in their internalization of their environment than the corresponding control animals. This difference disappeared about day 40, after which all MOCS1^−/− animals were as agile and full of life as the control individuals. […] The injection of 2-4 μg precursor Z every third day ws found to be the most successful treatment.

[3] = Oxidation of precursor Z to compound Z in 2x PBS buffer, UV-VIS; format: physicochemical
Method: (a) Oxidation of precursor Z to compound Z. (b) UV-VIS absorption spectrum of 22 μM precursor Z after 17 h incubation at room temperature in 2× PBS-Buffer (pH 6.9). The spectra were recorded and indicated in time intervals following dilution in Buffer. (c) […] of oxidation of precursor Z by recording the absorption at 350 nm from the spectra shown in (b).
In order to obtain larger amounts, we used a bacterial strain, which enriched precursor Z on the basis of a defect in the conversion to MPT. A further improvement in the yield could be achieved by over expression of the protein MoaA and MoaC, which catalyse the first step of Moco-synthesis. This leads to an approximately 5000-fold enrichment of precursor Z in comparison to wild type cells, with an average yield of 40 μg per L E. coli culture and a final concentration of 30-140 μg/ml. […] Under physiological and aerobic conditions at pH 6.9 (2×PBS buffer) a 22 μM solution of precursor Z was oxidized within 5 h completely to compound ZBe^9. The half time of precursor Z at pH 6.9 could be determined with 62±12 (FIG. 5c).

[4] = tested on: sulphite oxidase; test: Sulphite oxidase activity in liver after last injection; format: in vivo, mice
Method: (§1) FIG. 6: Restoration of the MPT-biosynthesis in vitro and in vivo. (a) In vitro restoration of MOCS1-deficient liver extracts with precursor Z. Protein raw extract of a five day old MOCS1^−/− were incubated (1 h) with the indicated amounts of purified precursor Z per mg protein. Restoration of MPT-synthesis was measured by means of nit-1 reconstitution assay. (b-d) Biochemical analysis of precursor Z treated MOCS1-deficient animals. The mice were twice weekly injected with increasing amounts of precursor Z, beginning with 2 μg after birth and up to 8 μg after weaning. Between the days 25-55 after birth the treatment was stopped. On day 0 (4 hours after the last injection), 1, 4 and 7 respectively, two mice were sacrificed. Two liver samples of each animal were removed and separately further processed. Each value in the figure was thus determined four times. […]
(§2) In homozygote MOCS1^−/−-animals, in which precursor Z was injected regularly and which appeared normal with regard to weight, appearance and behavior, the treatment was halted and the animals were sacrificed sequentially at days 0, 1, 4 and 7 after the last injection in order to determine the MPT-content and the Mo-enzyme activity in the liver (FIG. 6b-d). Due to the rapid conversion of the administered precursor Z to MPT, the highest MPT-value was measured on the day of the injection (16±1% of the wildtype; FIG. 6b). […]

[5] = tested on: MOCS1-deficient mice; test: Xanthin and uric acid in urine of treated knockout mice; format: in vivo; conditions: data not shown
[6] = tested on: MOCS1-deficient mice; test: Open field test; format: in vivo; set-up: dose or concentration left out as unconfirmed; conditions: precursor Z every third day
[7] = tested on: MOCS1-deficient mice; test: Water labyrinth learning test; format: in vivo
Method: FIG. 7: Ability to train precursor Z-treated MOCS1-deficient mice in a water labyrinth. The values represented a cross section of six wildtype- (wt, black bars) and six precursor Z treated MOCS1-deficient mice (MOCS1 ^−/−, white bars). […] C, time (of a total of 120 seconds), spent in the correct sector (without platform), which were learned in passes A and B.
(§3) Avoidance of light was tested in the light/dark box, in which the animals were placed into the light area and the time was determined until the animals sought out the darker area. […] The results were compared with wild-type controls. The mice were sequentially introduced into all four sectors and the time was measured until the animals found and climbed onto the platform (FIG. 7). […] In a second test series, the average swim time was reduced to 20-25% of the first test both in the “knockout” mice as well as with the control animals. In a third test series, the platform was removed and the time was measured that the mice spent in the “correct” sector—the sector that previously contained the platform. Both groups spent approximately 50% of the time in the correct sector.

[8] = target: E. coli MPT-Synthase (Escherichia coli, UniProt P30749); test: In vitro conversion of precursor Z to MPT with purified MPT-synthase; format: biochemical; conditions: double excess of MPT-synthase, HPLC formA analysis
Text: The biological activity of the purified precursor Z could be verified by a quantitive in vitro conversion to MPT tinder use of purified E. coli MPT-Synthase^B26 . […] In order to determine the amount of precursor Z needed for a successful reestablishment of Moco-biosynthesis in MOCS1-deficient mice, we carried out an in vitro reconstitution with various amount of precursor Z in protein-raw extract from the liver of five day old MOCS1-deficient mice carried out (FIG. 6a). In the case of the employment of 134 ng precursor Z/mg protein a near complete reestablishment of Moco-biosynthesis could be achieved, while 27 ng precursor Z led to a reconstitution of approximately 50%. The protein total concentration of the liver extract amounted to 6 mg (obtained from 50 mg total liver tissue) which necessitated a total required amount of precursor Z of 0.8 μg for each animal for complete reestablishment of the MPT-synthesis under in vitro conditions. Accordingly for an adult animal with a body weight of 20 g and an approximate mass or weight of the liver of 1 g, 16 μg precursor Z was needed for complete reestablishment, however only 3 μg for an activation of 50%. […]

[9] = Oxidation of precursor Z in D2O/DCl on exposure to air, followed by 1H-NMR; format: physicochemical; conditions: D2O and DCl, exposed to air
Method: One- (1D) and two-dimensional (2D) ^1H-NMR-correlation spectra (COSY) were recorded at 300 K with a Bruker Avance DMX 600 NMR-spectrometer, which is linked to the dominating resonance of deuterium from the solvent D2O. Chemical shifts are indicated in ppm relative to the background signal of the solvent (4.80 ppm) and couplings in Hz. Precursor Z containing samples (100-200 μg) were freeze-dried and resuspended in 700 μl degassed D2O and 2 μl 36% DCl. For avoidance of oxidation, the pipette was gased for 5 minuites with nitrogen. These solutions were stable enough for recording both 1D- and 2D-COSY-spectra. Subsequent exposure of the solution to air caused the oxidation of the precursor Z to the well-described main single product, compound Z, and this reaction was monitored at regular intervals by recording 1D-^1H-spectra. Under normal conditions, this reaction is concluded after 14 days in D2O and DCl.

[10] = tested on: xanthine dehydrogenase; test: Xanthine dehydrogenase activity in liver after last injection; format: in vivo, mice
Method: as §1, §2

[11] = low pH-values; cited from earlier work
[12] = tested on: MOCS1-deficient mice; test: Morphologic examination of tissues of treated knockout mice; format: in vivo
Method: FIG. 8: Morphologic comparison of kidneys (a, b) and brain sections (c,d) of wildtype- (a,c) and precursor Z-treated MOCS1-deficient mice, (b,d). Treatment was with 2-4 μg each third day. (a) Regular kidneys with normal glomerulus (arrow), characteristic developed tubuli and thin (narrow) interstices (200×). […] Proximal tubuli were extended (28+/−19%). […] The glomerulus is normal (arrow). (c,d) Corresponding coronal brain sections (Cx, Cortex; Hi, Hippocampus; Str, Striatum; Th, Thalamus; Hy, Hypothalamus) of wildtype-(c) and precursor Z-treated MOCS1^−/− mice (d).
Tissue from heart, skeletal muscle, lung, pancreas, thyroid, spleen and liver (data not shown) as well as brain (FIG. 8c-d) were examined.

[13] = tested on: MPT-synthesis in MOCS1-deficient liver extracts; test: In vitro reconstitution of MOCS1-deficient liver extract, nit-1 reconstitution assay; format: biochemical, mice
Method: FIG. 6: Restoration of the MPT-biosynthesis in vitro and in vivo. (a) In vitro restoration of MOCS1-deficient liver extracts with precursor Z. Protein raw extract of a five day old MOCS1^−/− were incubated (1 h) with the indicated amounts of purified precursor Z per mg protein. Restoration of MPT-synthesis was measured by means of nit-1 reconstitution assay. (b-d) Biochemical analysis of precursor Z treated MOCS1-deficient animals. The mice were twice weekly injected with increasing amounts of precursor Z, beginning with 2 μg after birth and up to 8 μg after weaning. Between the days 25-55 after birth the treatment was stopped. On day 0 (4 hours after the last injection), 1, 4 and 7 respectively, two mice were sacrificed. Two liver samples of each animal were removed and separately further processed. Each value in the figure was thus determined four times. Total-MPT inclusive Moco (b), sulphite oxidase activity (c) and xanthine dehydrogenase (d) are indicated as percentage of the corresponding wildtype value (n=4).
The biological activity of the purified precursor Z could be verified by a quantitive in vitro conversion to MPT tinder use of purified E. coli MPT-Synthase^B26 . […] In order to determine the amount of precursor Z needed for a successful reestablishment of Moco-biosynthesis in MOCS1-deficient mice, we carried out an in vitro reconstitution with various amount of precursor Z in protein-raw extract from the liver of five day old MOCS1-deficient mice carried out (FIG. 6a). In the case of the employment of 134 ng precursor Z/mg protein a near complete reestablishment of Moco-biosynthesis could be achieved, while 27 ng precursor Z led to a reconstitution of approximately 50%. The protein total concentration of the liver extract amounted to 6 mg (obtained from 50 mg total liver tissue) which necessitated a total required amount of precursor Z of 0.8 μg for each animal for complete reestablishment of the MPT-synthesis under in vitro conditions. Accordingly for an adult animal with a body weight of 20 g and an approximate mass or weight of the liver of 1 g, 16 μg precursor Z was needed for complete reestablishment, however only 3 μg for an activation of 50%. […] Although the in vitro titration experiment yielded no information regarding which part of the Moco is transmitted to the Apo-sulfhite-oxidase, the investigated or established amount of precursor Z related to the maximal capacity of the MPT-production in the liver of MOCS1-deficient mice.

[14] = tested on: MOCS1-deficient mice; test: Light/dark box test; format: in vivo; conditions: treated MOCS1-deficient mice
Method: as §3

[15] = tested on: Total-MPT inclusive Moco; test: MPT content in liver after last injection; format: in vivo, mice
Method: as §1, §2

[16] = tested on: MOCS1-deficient mice; test: Cessation or delayed initiation of precursor Z treatment; format: in vivo
Text: In order to test whether the treatment with precursor Z can be halted after a certain developmental stage, we stopped the injection of precursor Z in homozygouse mutants on days 1 (n=3), 12 (n=4), 26-28 (n=3) and 64-68 (n=2) after birth. A single injection of precursor Z after day one led to death after 15-18 days. […] At the age of 26-28 days, in which the previously described critical period falls, the cessation of administration of precursor Z led to death within 4-7 days. Cessation after 64-68 days led to reduced exploration of the environment after 7 days and to death after 9-10 days. In order to successfully correct the phenotype, the administration with precursor Z had to be initiated within 5 days following birth.

[17] = adult animal, body weight 20 g, liver 1 g

Chain of E. coli MPT-Synthase (P30749 whole entry): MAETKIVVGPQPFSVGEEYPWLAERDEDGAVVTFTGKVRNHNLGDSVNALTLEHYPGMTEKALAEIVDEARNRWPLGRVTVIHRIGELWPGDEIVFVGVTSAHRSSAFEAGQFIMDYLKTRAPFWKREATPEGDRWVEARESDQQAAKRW
Chain of E. coli MPT-Synthase (P30748 whole entry, further chain): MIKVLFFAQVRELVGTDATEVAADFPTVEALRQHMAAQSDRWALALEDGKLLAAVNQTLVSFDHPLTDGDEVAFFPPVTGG

## Nc1nc2c(c(=O)[nH]1)N[C@@H]1[C@H](N2)O[C@@H]2COP(=O)(O)O[C@@H]2C1(O)O [precursor Z]
[1]
  running wheel: limitations of movement: Limitations of movement were not shown
[2]; 0.2 μg every second day, 11 mice
  development and weight gain: developed normally
[2]; 0.2 μg every second day
  Average Lifespan: 17.7 days
[2]; 1 μg (prior to weaning) and 2 μg (after weaning) every third day
  Average Lifespan: 32.9 days
[2]; 1 μg every third day
  Average Lifespan: 25.2 days
[2]; 2 μg every second day
  Average Lifespan: 47.4 days
[2]; 1-2 μg every third day
  fraction of treated animals that died between day 20 and 40: Approximately half
[2]; 2-4 μg every third day
  deaths between days 40-70: no animal died
  offspring of pairings of treated animals: normally developed, healthy off-spring
[2]; prior to weaning
  difference in weight, behavior or other phenotypic characteristics versus wild type or heterozygous siblings: no difference could be determined
[3]; 2x PBS-Buffer pH 6.9, room temperature
  stability under physiological conditions: stable under physiological conditions
[3]; pH 6.9, 2xPBS buffer, aerobic, 22 μM, room temperature
  half time of precursor Z: 62±12
[3]; pH 6.9, 2xPBS buffer, physiological and aerobic conditions, 22 μM solution
  time to complete oxidation to compound Z: ≤ 5 h
[4]; day 0 to day 1 after the last injection
  sulphite oxidase activity, course: rise
[4]; liver
  sulphite oxidase activity (% of wildtype) versus reconstituted MPT-content: higher than the reconstituted MPT-content
[5]
  uric acid in the urine: not measurable
  xanthin in the urine: very high
[6]
  open field: movement, learning and social behavior versus wildtype: no significant differences
[7]; first series of tests
  water labyrinth: finding the platform versus wild-type controls: more rapidly than the wild-type control animals
[7]; second test series
  water labyrinth: average swim time as % of the first test: 20-25%
[7]; third test series, platform removed
  water labyrinth: time spent in the correct sector: approximately 50%
[8]
  conversion of precursor Z into MPT: almost completely
[9]
  time until oxidation to compound Z is concluded: 14 days
[10]; after day 1
  xanthin dehydrogenase activity, course: rapidly decreased
[10]; liver
  xanthin-dehydrogenase activity (% of wildtype) versus reconstituted MPT-content: higher than the reconstituted MPT-content
[11]
  estimated half time: several hours
[12]; 2-4 μg each third day
  enlargement of the matrix of the interstices: 13+/−13%
  extension of proximal tubuli: 28+/−19%
  kidney stones: numerous stones in the tubuli
[12]; beginning day 20 after birth
  kidney morphology: bilateral abnormal kidneys
[12]; heart, skeletal muscle, lung, pancreas, thyroid, spleen, liver, brain
  morphology besides kidney: no further morphologic abnormality
[13]; 27 ng precursor Z, liver extract of five day old MOCS1-deficient mice, 1 h
  reconstitution: approximately 50%
[13]; 134 ng precursor Z/mg protein, liver extract of five day old MOCS1-deficient mice, 1 h
  reestablishment of Moco-biosynthesis: near complete
[13]; [17]
  amount of precursor Z needed for an activation of 50%: 3 µg
  amount of precursor Z needed for complete reestablishment: 16 µg
[13]; five day old animal, 6 mg liver extract protein, in vitro conditions
  total required amount of precursor Z per animal for complete reestablishment of MPT-synthesis: 0.8 µg
[14]
  light/dark box: time until seeking the darker area versus wild type: no significant difference
[15]; day of the injection (day 0, 4 hours after the last injection)
  MPT-value in liver: 16±1 % of the wildtype
[15]; within the following four days after last injection
  MPT-content in liver: less than 4 % of the wildtype value
[16]; cessation after 64-68 days
  death after cessation: 9 to 10 days
  onset of reduced exploration of the environment after cessation: 7 days
[16]; cessation at the age of 26-28 days
  death after cessation: 4 to 7 days
[16]; cessation on day 12
  death after the last injection: 7 to 9 days
  onset of limited exploration of the environment after the last injection: 6 days
[16]; initiation of treatment after 7 or 10 days
  improvement of the phenotype or the life expectancy: no significant improvement
[16]; mouse, in vivo
  time after birth within which administration had to be initiated to correct the phenotype: ≤ 5 days
[16]; single injection, treatment stopped on day 1
  time of death: 15 to 18 days
